A short description of the series: Stress stability of crystalline Form EM1 (moisture content, XRPD pattern). The class given is physicochemical. As for the experimental part:
In an embodiment, the open sample of Form EM1 is stable at 25° C. for at least 24 hours. In an embodiment, the open sample of Form EM1 is stable under heating in air tray drier at 60° C. for at least 24 hours. In an embodiment, the open sample of Form EM1 is stable at 40° C. and 75% RH condition for at least 24 hours. In an embodiment, the open sample of Form EM1 is stable at 25° C. and 85% RH for at least 24 hours. In an embodiment, the open sample of Form EM1 is stable under UV exposure for at least 16 hours.

Where a name gives a salt, the structure may show the parent alone.

In the case of `COc1cc2c(cc1OC)CN(CCc1ccc(-n3nnc(-c4cc(OC)c(OC)cc4NC(=O)c4cc(=O)c5ccccc5o4)n3)cc1)CC2` [Form EM1, Encequidar mesylate], the “Moisture content (%)” value (Initial) stood at 6.95%; the “Moisture content (%)” value (Open 25° C., 24 hours) amounted to 5.94%; the “Moisture content (%)” value (Open 40° C./75% RH, 24 hours) is 5.71%; the “Moisture content (%)” value (Open 60° C., 24 hours) was found to be 5.5%; the “Moisture content (%)” value (UV exposed, 24 hours) is given as 6.26%. The XRPD pattern result is given as “Form EM1” (Initial); “Form EM1” (Open 25° C., 24 hours); “Form EM1” (Open 40° C./75% RH, 24 hours); “Form EM1” (Open 60° C., 24 hours); “Form EM1” (UV exposed, 24 hours). In addition, the Time stable entry (open sample at 25° C.) is on record as “at least 24 hours”; the Time stable entry (open sample at 25° C. and 85% RH) is “at least 24 hours”; the Time stable result (open sample at 40° C. and 75% RH) is listed as “at least 24 hours”; the Time stable entry (open sample under UV exposure) is “at least 16 hours”; the Time stable result (open sample, heating in air tray drier at 60° C.) is given as “at least 24 hours”. Moreover, the “Stability under tabulated stress conditions” value (stress conditions for 24 hours) is recorded as “found to be stable”. Moreover, the “Change in weight or moisture content and X-ray diffraction patterns” value (stressed samples, FIG. 5) is “No significant change”.

The values are drawn from US20220169637A1, “SOLID FORMS OF ENCEQUIDAR MESYLATE AND PROCESSES THEREOF” (DR. REDDY'S LABORATORIES LIMITED, priority 2019, published 2022).
